Where “and” joins values, the source holds several entries; their conditions need not be identical. Equal entries are not always repeated. Numbers after ± are expanded uncertainties.
Test: molar heat capacity at constant pressure
Details: 101.33 kPa, Crystal

Brc1cc(Br)cc(Br)c1 [1,3,5-tribromobenzene]
Details	molar heat capacity at constant pressure
6.52 K	1.72 ± 0.06 J/K/mol
6.88 K	2.15 ± 0.07 J/K/mol
6.95 K	2.19 ± 0.07 J/K/mol
7.15 K	2.56 ± 0.07 J/K/mol
7.61 K	3.13 ± 0.08 J/K/mol
7.91 K	3.91 ± 0.09 J/K/mol
8.43 K	4.55 ± 0.1 J/K/mol
8.64 K	4.82 ± 0.1 J/K/mol
9.26 K	5.6 ± 0.11 J/K/mol
9.48 K	6.06 ± 0.12 J/K/mol
9.98 K	6.73 ± 0.13 J/K/mol
10 K	6.75 ± 0.13 J/K/mol
10.55 K	7.4 ± 0.14 J/K/mol
10.76 K	7.57 ± 0.14 J/K/mol
11.09 K	8.13 ± 0.15 J/K/mol
11.43 K	8.59 ± 0.15 J/K/mol
12.2 K	9.56 ± 0.16 J/K/mol
12.4 K	9.97 ± 0.17 J/K/mol
13.02 K	11.12 ± 0.18 J/K/mol
13.44 K	11.86 ± 0.19 J/K/mol
13.52 K	11.96 ± 0.19 J/K/mol
14.28 K	13.92 ± 0.22 J/K/mol
14.41 K	14.32 ± 0.22 J/K/mol
14.86 K	15.39 ± 0.23 J/K/mol
15 K	15.69 ± 0.23 J/K/mol
15.24 K	16.16 ± 0.24 J/K/mol
15.97 K	17.16 ± 0.25 J/K/mol
16.24 K	17.78 ± 0.25 J/K/mol
16.42 K	18.22 ± 0.25 J/K/mol
16.81 K	18.82 ± 0.26 J/K/mol
17.75 K	20.23 ± 0.27 J/K/mol
18.13 K	21.04 ± 0.27 J/K/mol and 21.05 ± 0.28 J/K/mol
18.35 K	21.29 ± 0.28 J/K/mol
18.91 K	22.41 ± 0.28 J/K/mol
19.3 K	22.84 ± 0.29 J/K/mol
19.96 K	24.11 ± 0.29 J/K/mol
20 K	24.16 ± 0.29 J/K/mol
20.32 K	24.44 ± 0.29 J/K/mol
20.36 K	25.02 ± 0.3 J/K/mol
20.69 K	25.21 ± 0.3 J/K/mol
20.91 K	25.52 ± 0.3 J/K/mol
21.28 K	25.98 ± 0.3 J/K/mol
21.33 K	26.05 ± 0.3 J/K/mol
22.22 K	27.37 ± 0.3 J/K/mol
22.85 K	28.05 ± 0.3 J/K/mol
23.13 K	28.66 ± 0.3 J/K/mol
23.5 K	29.01 ± 0.3 J/K/mol
25 K	30.93 ± 0.3 J/K/mol
25.43 K	31.5 ± 0.3 J/K/mol
25.52 K	31.63 ± 0.3 J/K/mol
25.66 K	31.94 ± 0.3 J/K/mol
27.61 K	34.27 ± 0.29 J/K/mol
28.08 K	34.74 ± 0.29 J/K/mol
29.8 K	36.66 ± 0.27 J/K/mol
30 K	36.88 ± 0.23 J/K/mol
30.83 K	37.81 ± 0.23 J/K/mol
32.02 K	39.23 ± 0.24 J/K/mol
33.45 K	40.57 ± 0.24 J/K/mol
34.29 K	41.49 ± 0.25 J/K/mol
35.86 K	42.74 ± 0.25 J/K/mol
36.6 K	43.58 ± 0.26 J/K/mol
38.95 K	45.82 ± 0.26 J/K/mol
40 K	46.88 ± 0.27 J/K/mol
41.31 K	48.18 ± 0.27 J/K/mol
43.74 K	50.35 ± 0.28 J/K/mol
46.2 K	52.53 ± 0.29 J/K/mol
48.69 K	54.78 ± 0.3 J/K/mol
50 K	55.72 ± 0.3 J/K/mol
51.22 K	56.59 ± 0.31 J/K/mol
53.78 K	58.73 ± 0.32 J/K/mol
56.38 K	60.57 ± 0.32 J/K/mol
59 K	62.4 ± 0.33 J/K/mol
60 K	63.1 ± 0.33 J/K/mol
61.66 K	64.25 ± 0.34 J/K/mol
64.34 K	66.1 ± 0.34 J/K/mol
67.06 K	67.97 ± 0.35 J/K/mol
69.79 K	69.75 ± 0.36 J/K/mol
70 K	69.88 ± 0.36 J/K/mol
72.55 K	71.4 ± 0.37 J/K/mol
75.33 K	73.12 ± 0.37 J/K/mol
78.14 K	74.71 ± 0.38 J/K/mol
80 K	75.73 ± 0.38 J/K/mol
80.95 K	76.25 ± 0.39 J/K/mol
83.79 K	77.97 ± 0.39 J/K/mol
84.19 K	78.04 ± 0.39 J/K/mol
86.63 K	79.59 ± 0.4 J/K/mol
87.47 K	79.75 ± 0.4 J/K/mol
89.49 K	81.07 ± 0.4 J/K/mol
90 K	81.22 ± 0.56 J/K/mol
90.65 K	81.41 ± 0.56 J/K/mol
92.36 K	82.26 ± 0.56 J/K/mol
93.74 K	82.91 ± 0.57 J/K/mol
95.25 K	83.54 ± 0.57 J/K/mol
96.75 K	84.24 ± 0.57 J/K/mol
98.15 K	85.01 ± 0.57 J/K/mol
99.69 K	85.65 ± 0.57 J/K/mol
100 K	85.83 ± 0.57 J/K/mol
101.04 K	86.47 ± 0.57 J/K/mol
102.61 K	87.46 ± 0.58 J/K/mol
105.54 K	88.95 ± 0.58 J/K/mol
108.48 K	90.22 ± 0.58 J/K/mol
110 K	90.89 ± 0.58 J/K/mol
111.43 K	91.51 ± 0.58 J/K/mol
114.39 K	92.81 ± 0.59 J/K/mol
117.36 K	94.15 ± 0.59 J/K/mol
120 K	95.33 ± 0.59 J/K/mol
120.34 K	95.48 ± 0.59 J/K/mol
123.32 K	96.75 ± 0.59 J/K/mol
126.31 K	98.04 ± 0.6 J/K/mol
129.31 K	99.34 ± 0.6 J/K/mol
130 K	99.63 ± 0.6 J/K/mol
132.31 K	100.61 ± 0.6 J/K/mol
135.32 K	101.87 ± 0.6 J/K/mol
138.33 K	103.08 ± 0.61 J/K/mol
140 K	103.77 ± 0.61 J/K/mol
141.34 K	104.32 ± 0.61 J/K/mol
144.36 K	105.54 ± 0.61 J/K/mol
147.39 K	106.84 ± 0.61 J/K/mol
150 K	107.74 ± 0.62 J/K/mol

Source: the NIST ThermoML archive (doi:10.1021/je049762q)
